NC(N)=S
solubility (mole fraction)
Settings	283.15 K	288.15 K	293.15 K	298.15 K	303.15 K	308.15 K	313.15 K
in ethanol	0.0185	0.0206	0.0222	0.025	0.027	0.0315	0.0348
in methanol	0.0421	0.046	0.0501	0.054	0.061	0.065	0.0744
in n-propanol	0.0185	0.0206	0.0222	0.025	0.027	0.0315	0.0348

Reference: BigSolDB 2.1
